According to patent publication US20260207600A1, “METHODS OF TREATMENT WITH MYOSIN MODULATOR” (MYOKARDIA, INC., priority 2019, published 2026):
Values joined by “and” are separate entries in the source; they are usually repeats but may differ in a detail not shown here. Equal entries are not always repeated.

Tested on: individuals with symptomatic obstructive hypertrophic cardiomyopathy (oHCM)
Test: PIONEER-OLE Phase 2 open-label extension study of mavacamten
Assay type: in vivo
Procedure: All subjects were started on a dose of 5 mg QD.
To maximize safety, the starting dose will be 5 mg for all subjects. Subjects will return at Week 4 (±4 days) for a plasma PK sample to measure drug levels and to undergo echocardiography to determine LVOT gradient (at rest, after a Valsalva maneuver, and after exercise) and left ventricular ejection fraction (LVEF).
After Week 6, additional study visits will occur at Week 8 (±7 days), Week 12 (±7 days), and every 12 weeks (±7 days) thereafter. Subjects also will be contacted by phone in between clinic visits, at Week 18 and every 12 weeks thereafter. An end of study (EOS) visit will occur 12 weeks (±7 days) after the last administration of study drug. Visits (including the Screening visit which serves as the baseline) will entail recording vital signs, targeted physical examination, ECGs, safety laboratory tests, N-terminal pro b-type natriuretic peptide (NT-proBNP), adverse events (AEs), New York Heart Association (NYHA) functional class, Kansas City Cardiomyopathy Questionnaire (KCCQ) score, and concomitant medications. At Weeks 4, 8, 24, 36, 48, 60, 72, 96, 120, 144, 156/early termination (ET), and 168/EOS, a predose blood sample for assessment of drug concentration will be obtained. A standard TTE (including but not limited to assessment of LVOT gradient at rest and after Valsalva) will be performed at baseline, at Weeks 4, 8, 12, 24, 36, 48, 72, 96, 120, 144, 156/ET, and 168/EOS. In addition, a stress echocardiogram (with assessment of LVOT gradient post-exercise) will also be performed at baseline, Weeks 4, 48, 72, 156/ET, and 168/EOS.
The study endpoints include safety, tolerability, and select measures of efficacy using individualized dosing. Key measurements include LVOT gradient, LVEF, NT-proBNP.
• 1. Frequency and severity of treatment-emergent AEs and SAEs, • 2. Frequency of cardiovascular (CV) death, • 3. Frequency of sudden death, • 4. Frequency of CV hospitalization, • 5. Frequency of heart failure requiring the initiation of oral loop diuretics or the administration of intravenous loop diuretics, • 6. Frequency of myocardial infarction, • 7. Frequency of ventricular arrhythmias (ventricular tachycardia, ventricular fibrillation, ventricular flutter, torsade de pointe), • 8. Frequency of syncope, • 9. Frequency of seizures, • 10. Frequency of stroke, • 11. Frequency of LVEF≤45% as measured by echocardiography, • 12. QT and QTcF intervals over time.
• 1. Post-exercise, post-Valsalva, and resting LVOT gradient over time, • 2. NYHA functional class over time, • 3. KCCQ scores over time, • 4. NT-proBNP over time, • 5. Frequency of septal reduction therapy.

[1] = Change from Baseline to Week 48

CC(C)n1c(=O)cc(N[C@@H](C)c2ccccc2)[nH]c1=O [mavacamten, (S)-3-Isopropyl-6-((1-phenylethyl)amino)pyrimidine-2, 4(1H,3H)-dione]
Cardiac-related adverse events (AEs) attributed to study drug (48-week period): no cardiac-related adverse events
E/e′ lateral [1]: −3.4
NT-proBNP, median [1]: -472 pg/mL
e′lat, mean ± SD [1]: 1.6 cm/s and 1.6 ± 1.1 cm/s
IVS (Change from Baseline to Week 48, Table 1.1): −1.5 mm
E/e′ lateral (Week 12): 9.8
Interventricular septal thickness, Change from baseline, mean ± SD (Week 12): −0.7 ± 0.7 mm
Interventricular septal thickness, Mean ± SD (Week 12): 15.9 ± 2.7 mm
LV maximum wall thickness, Change from baseline, mean ± SD (Week 12): −0.8 ± 2.0 mm
LV maximum wall thickness, Mean ± SD (Week 12): 20.1 ± 2.5 mm
LV posterior wall thickness, Change from baseline, mean ± SD (Week 12): 0.2 ± 0.8 mm
LV posterior wall thickness, Mean ± SD (Week 12): 11.9 ± 2.2 mm
NT-proBNP, median (Week 12): 99 pg/mL
Systolic anterior motion of the mitral valve present, % (Week 12): (46.2) %
e′lat, mean ± SD (Week 12): 8.4 ± 2.3 cm/s
IVS (Week 12, Table 1.1): 16.0 mm
E/e′ lateral (Week 24): 10.2
Interventricular septal thickness, Change from baseline, mean ± SD (Week 24): −0.7 ± 1.1 mm
Interventricular septal thickness, Mean ± SD (Week 24): 15.8 ± 2.7 mm
LV maximum wall thickness, Change from baseline, mean ± SD (Week 24): −1.8 ± 1.8 mm
LV maximum wall thickness, Mean ± SD (Week 24): 19.1 ± 2.4 mm
LV posterior wall thickness, Change from baseline, mean ± SD (Week 24): 0.2 ± 0.9 mm
LV posterior wall thickness, Mean ± SD (Week 24): 11.8 ± 2.0 mm
NT-proBNP, median (Week 24): 93 pg/mL
Systolic anterior motion of the mitral valve present, % (Week 24): (46.2) %
e′lat, mean ± SD (Week 24): 7.9 ± 2.2 cm/s
IVS (Week 24, Table 1.1): 15.8 mm
E/e′ lateral (Week 36): 8.5
Interventricular septal thickness, Change from baseline, mean ± SD (Week 36): −1.2 ± 1.7 mm
Interventricular septal thickness, Mean ± SD (Week 36): 15.4 ± 2.7 mm
LV maximum wall thickness, Change from baseline, mean ± SD (Week 36): −1.8 ± 1.9 mm
LV maximum wall thickness, Mean ± SD (Week 36): 19.0 ± 2.2 mm
LV posterior wall thickness, Change from baseline, mean ± SD (Week 36): 0.0 ± 1.5 mm
LV posterior wall thickness, Mean ± SD (Week 36): 11.7 ± 1.7 mm
NT-proBNP, median (Week 36): 168 pg/mL
Systolic anterior motion of the mitral valve present, % (Week 36): (58.3) %
e′lat, mean ± SD (Week 36): 8.7 ± 2.8 cm/s
IVS (Week 36, Table 1.1): 15.4 mm
E/e′ lateral (Week 48): 9.1
Interventricular septal thickness, Change from baseline, mean ± SD (Week 48): −1.2 ± 2.3 mm
Interventricular septal thickness, Mean ± SD (Week 48): 15.5 ± 2.0 mm
LV maximum wall thickness, Change from baseline, mean ± SD (Week 48): −1.4 ± 2.2 mm
LV maximum wall thickness, Mean ± SD (Week 48): 19.4 ± 2.7 mm
LV posterior wall thickness, Change from baseline, mean ± SD (Week 48): −0.5 ± 1.9 mm
LV posterior wall thickness, Mean ± SD (Week 48): 11.1 ± 1.9 mm
NT-proBNP, median (Week 48): 137 pg/mL
Systolic anterior motion of the mitral valve present, % (Week 48): (33.3) %
Valsalva LVOT gradient, mean change (Week 48): −66.0 mm Hg
e′lat, mean ± SD (Week 48): 8.0 ± 1.6 cm/s
mean resting LVOT gradient (Week 48): 14.0 mm Hg
patients achieving a post-exercise LVOT gradient<30 mm Hg (Week 48): Five
post-exercise LVOT gradient, mean change (Week 48): −85.1 mm Hg
resting LVOT gradient for all subjects (Week 48): below 50 mmHg
subjects achieving asymptomatic status (NYHA Class I) (Week 48): nine out of twelve
subjects with resting LVOT gradient below the 30 mmHg threshold (Week 48): 11 of 12
IVS (Week 48, Table 1.1): 15 mm and 15.3 mm
Interventricular septal thickness, Change from baseline, mean ± SD (Week 48, listed as Mavacamten): −1.2 mm
LV maximum wall thickness, Change from baseline, mean ± SD (Week 48, listed as Mavacamten): −1.4 mm
KCCQ mean score (Week 48, scores range 0-100): 87.3
LVEF for all patients (all timepoints throughout the study): above 50%
resting LVOT gradient, mean change (baseline to Week 48): −52.7 mm Hg
Number of AEs considered potentially related to study drug (in 3 subjects): 8
number of SAEs (in 3 subjects, not cardiovascular, not related to study drug): 4
Number of AEs (most mild or moderate, and transient): 64
Tolerability (one-year treatment period): well tolerated
